This is an account of results in PubChem BioAssay AID588772 (The Scripps Research Institute Molecular Screening Center, 2011).

Active and inactive are the calls of the source. The rule behind the calls is not given here.

This test concerns 3C-like protease (3CLpro), SARS coronavirus. In words: SARS 3CLpro protease inhibitors, late-stage follow-up, biochemical, fluorescence, single concentration, set 4 (AID 588772). The note with it: recombinant 3CLpro, fluorogenic substrate cleavage; at 100 µM; hits give high values.
`CC(C)(C)NC(=O)C(c1cccnc1)N(C(=O)c1ccco1)c1ccc(-c2cncnc2)cc1` (stereo not drawn): the inhibition is 48.6% (inactive).

As to `CC(C)(C)NC(=O)C(c1cccnc1)N(C(=O)c1ccco1)c1ccc(Cc2ccccc2)cc1` (stereo not drawn), the inhibition is 77.6%.

With `CC(C)(C)NC(=O)C(c1cccnc1)N(C(=O)c1ccco1)c1ccc(-c2ccccc2)cc1` (stereo not drawn), the inhibition was 94.8%.

Take `CC(C)(C)NC(=O)C(c1cccnc1)N(C(=O)c1ccco1)c1ccc(Oc2ccccc2)cc1` (stereo not drawn): the inhibition was 40.9% (inactive).

Take `CC(C)(C)c1ccc(N(Cc2cccnc2)C(=O)c2cnc[nH]2)cc1`: the inhibition is 46.8% (inactive).

As for `CC(C)(C)NC(=O)C(c1cccnc1)N(C(=O)c1ccco1)c1ccc(OCc2ccccc2)cc1` (stereo not drawn), the inhibition is 53.2%.

As to `CC(C)(C)NC(=O)C(c1cccnc1)N(C(=O)c1ccco1)c1ccc(-c2cccc(F)c2F)cc1` (stereo not drawn), the inhibition is 90.2%.

Take `CC(C)(C)NC(=O)C(c1cnccn1)N(C(=O)c1ccco1)c1ccc(C(C)(C)C)cc1` (stereo not drawn): the inhibition is 96.2%.

With `CC(C)(C)NC(=O)C(c1cccnc1)N(C(=O)c1ccco1)c1ccc(I)cc1` (stereo not drawn), the inhibition was 66.3%.

With `CC(C)(C)NC(=O)C(c1ccnnc1)N(C(=O)c1ccco1)c1ccc(C(C)(C)C)cc1` (stereo not drawn), the inhibition was 94.3%.

Regarding `CC(C)(C)NC(=O)C(c1cccnc1)N(C(=O)c1ccco1)c1ccc(-c2ccnc(F)c2)cc1` (stereo not drawn), the inhibition was 40.3% (inactive).

As for `CC(C)(C)NC(=O)[C@@H](c1cccnc1)N(C(=O)c1cnc[nH]1)c1ccc(C(C)(C)C)cc1`, the inhibition was 47.1% (inactive).

Consider `CC(C)(C)NC(=O)C(c1cn[nH]c1)N(C(=O)c1ccco1)c1ccc(C(C)(C)C)cc1` (stereo not drawn), for which the inhibition is 16.1% (inactive).

For the compound `CC(C)(C)NC(=O)C(c1cn[nH]n1)N(C(=O)c1ccco1)c1ccc(C(C)(C)C)cc1` (stereo not drawn), the inhibition is 22.7% (inactive).

As for `Cc1ccc(C(C(=O)NC(C)(C)C)N(C(=O)c2ccco2)c2ccc(C(C)(C)C)cc2)cn1` (stereo not drawn), the inhibition was -4.1% (inactive).

In the case of `CC(C)(C)NC(=O)[C@H](c1cccnc1)N(C(=O)c1cnc[nH]1)c1ccc(C(C)(C)C)cc1`, the inhibition is 97.6%.

As for `COc1cccc(Oc2ccc(N(C(=O)c3ccco3)C(C(=O)NC(C)(C)C)c3cccnc3)cc2)c1` (stereo not drawn), the inhibition is 52%.

As to `CC(C)(C)NC(=O)C(c1cccnc1)N(C(=O)c1ccco1)c1ccc(-c2cccn2C(=O)OC(C)(C)C)cc1` (stereo not drawn), the inhibition was 56.9%.

Take `CC(C)(C)NC(=O)C(c1cnc[nH]1)N(C(=O)c1ccco1)c1ccc(C(C)(C)C)cc1` (stereo not drawn): the inhibition was 22.8% (inactive).

Consider `CC(C)(C)NC(=O)C(c1cccnc1)N(C(=O)c1ccco1)c1ccc(-c2ccncc2)cc1` (stereo not drawn), for which the inhibition was 27.8% (inactive).

Take `CC(C)(C)NC(=O)C(c1cccnc1)N(C(=O)c1cc2ccccc2o1)c1ccc(C(C)(C)C)cc1` (stereo not drawn): the inhibition is 14.3% (inactive).

Consider `Cn1cnc(C(=O)N(c2ccc(C(C)(C)C)cc2)C(C(=O)NC(C)(C)C)c2cccnc2)c1` (stereo not drawn), for which the inhibition is 51.3%.

Turning to `Cc1noc(C)c1-c1ccc(N(C(=O)c2ccco2)C(C(=O)NC(C)(C)C)c2cccnc2)cc1` (stereo not drawn), the inhibition was 85.1%.

Regarding `CC(C)(C)NC(=O)C(c1ccccn1)N(C(=O)c1ccco1)c1ccc(C(C)(C)C)cc1` (stereo not drawn), the inhibition is 0.7% (inactive).

In the case of `CC(C)(C)NC(=O)C(c1ccn[nH]1)N(C(=O)c1ccco1)c1ccc(C(C)(C)C)cc1` (stereo not drawn), the inhibition is 6.3% (inactive).

With `CC(C)(C)NC(=O)C(c1cccnc1)N(C(=O)c1ccco1)c1ccc(-c2cccnc2)cc1` (stereo not drawn), the inhibition is 64.1%.

Take `CC(C)(C)NC(=O)C(c1cccnc1)N(C(=O)c1ccc(C(F)(F)F)o1)c1ccc(C(C)(C)C)cc1` (stereo not drawn): the inhibition is 17.8% (inactive).

For the compound `CC(C)(C)NC(=O)C(c1ccncc1)N(C(=O)c1ccco1)c1ccc(C(C)(C)C)cc1` (stereo not drawn), the inhibition is 60.2%.

As usually defined, the inhibition is the relative decrease from the control value, in per cent.
